Test systems include UACC-62; NCI-H226; HT-29; SN12C; MDA-N; NCI-H23; Malme-3M; SK-MEL-28; MCF7; HCC 2998; CAKI-1; HCT-116; U-251; NCI-H522; SK-OV-3; SW-620; HCT-15; OVCAR-8; DU-145; Hs-578T.
Holding throughout (assay): NCI tumour cell line growth inhibition, 48 h

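The compound was tested at five concentrations on cells cultured in 96-well plates, with a 48-hour exposure period. Here, GI50 denotes the concentration required for 50% inhibition of growth.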 Calls of active or inactive are those of the source. No stated cut-off is given here; in the data, active = GI50 up to about 1.1 µM and inactive = higher.

For the molecule `O=C(Cn1ccnc1[N+](=O)[O-])N(CCO)CCO`, the GI50 in the experiment on UACC-62, in the experiment on NCI-H226, with HT-29, in the experiment on SN12C, with MDA-N and in the experiment on NCI-H23 was > 250 µM (inactive) each time. For the same molecule, the GI50 in the experiment on Malme-3M is 135 µM (inactive); with SK-MEL-28 it was > 250 µM (inactive); in the experiment on MCF7 it was > 1250 µM (inactive); with HCC 2998 it was > 250 µM (inactive); with CAKI-1, > 250 µM (inactive); in the experiment with HCT-116 it was > 250 µM (inactive). Also, the GI50 is > 250 µM (inactive) with U-251; > 250 µM (inactive) in the experiment with NCI-H522; > 250 µM (inactive) in the experiment on SK-OV-3; > 250 µM (inactive) in the experiment with SW-620; > 250 µM in the experiment with HCT-15; > 250 µM (inactive) in the experiment on OVCAR-8. The GI50 in the experiment with DU-145 and in the experiment on Hs-578T was > 250 µM (inactive) in each case.

As for `CC1=NN2C(=N)/C(=C/c3ccco3)C(=O)N=C2S1`, the GI50 in the experiment on UACC-62, in the experiment on NCI-H226, with HT-29, in the experiment on SN12C, in the experiment on MDA-N and in the experiment with NCI-H23 was > 100 µM (inactive) each time. Moreover, the GI50 in the experiment with Malme-3M, in the experiment on SK-MEL-28, in the experiment with MCF7, in the experiment with HCC 2998, with CAKI-1 and in the experiment with HCT-116 was > 100 µM (inactive) throughout. The GI50 with U-251 is > 100 µM (inactive); in the experiment with NCI-H522, 1.15 µM (inactive); with SK-OV-3, > 100 µM (inactive); in the experiment with SW-620, > 100 µM (inactive); in the experiment with HCT-15, > 100 µM; with OVCAR-8, > 100 µM (inactive). Further, the GI50 in the experiment on DU-145 and in the experiment with Hs-578T was > 100 µM (inactive) in each case.

As to `COc1ccc2c(c1)CCc1c-2[nH]c2ccc(OC)cc12`, the GI50 with UACC-62 was > 100 µM (inactive); with NCI-H226 it was 36.4 µM (inactive); with HT-29 it was 7.21 µM (inactive); in the experiment on SN12C, > 100 µM (inactive); with MDA-N, > 100 µM (inactive); in the experiment on NCI-H23, > 100 µM (inactive). Besides, the GI50 in the experiment with Malme-3M was 45.8 µM (inactive); in the experiment with SK-MEL-28, > 100 µM (inactive); with MCF7, > 100 µM (inactive); in the experiment with HCC 2998 it was > 100 µM (inactive); with CAKI-1 it was > 100 µM (inactive); in the experiment on HCT-116, > 100 µM (inactive). The GI50 with U-251 was > 100 µM (inactive); with NCI-H522, > 100 µM (inactive); with SK-OV-3, > 100 µM (inactive); in the experiment with SW-620, > 100 µM (inactive); in the experiment with HCT-15, > 100 µM; with OVCAR-8 it was > 100 µM (inactive). Also, the GI50 in the experiment with DU-145 and in the experiment on Hs-578T was > 100 µM (inactive) in each case.

For `Cc1ccc(C(=O)OCC(C)C)cc1/N=N/N(C)C`, the GI50 in the experiment on UACC-62 was > 100 µM (inactive); in the experiment on NCI-H226 it was > 100 µM (inactive); in the experiment with HT-29, 16.1 µM (inactive); with SN12C, > 65 µM (inactive); in the experiment on MDA-N, > 100 µM (inactive); with NCI-H23, 34.8 µM (inactive). In addition, the GI50 with Malme-3M is > 100 µM (inactive); in the experiment on SK-MEL-28, > 71 µM (inactive); with MCF7, 30.9 µM (inactive); in the experiment with HCC 2998, > 100 µM (inactive); in the experiment on CAKI-1, 43.8 µM (inactive); in the experiment with HCT-116, > 61.9 µM (inactive). Moreover, the GI50 in the experiment on U-251 was 65.6 µM (inactive); with NCI-H522, 35.2 µM (inactive); in the experiment with SK-OV-3, > 100 µM (inactive); in the experiment on SW-620, > 100 µM (inactive); in the experiment with HCT-15, 48.1 µM; in the experiment with OVCAR-8 it was > 100 µM (inactive). For the same molecule, the GI50 with DU-145 and in the experiment with Hs-578T was > 100 µM (inactive) in each case.

Take `O=c1cc(N2CCOCC2)[nH]c(=O)n1-c1ccc(F)cc1`: the GI50 in the experiment with UACC-62, in the experiment on NCI-H226, in the experiment on HT-29, in the experiment with SN12C, with MDA-N and in the experiment with NCI-H23 was > 100 µM (inactive) each time. Besides, the GI50 with Malme-3M, with SK-MEL-28, in the experiment with MCF7, with HCC 2998, in the experiment on CAKI-1 and in the experiment with HCT-116 was > 100 µM (inactive) each time. Moreover, the GI50 in the experiment on U-251 is > 100 µM (inactive); with NCI-H522, > 100 µM (inactive); in the experiment with SK-OV-3 it was > 100 µM (inactive); in the experiment on SW-620, > 100 µM (inactive); in the experiment on HCT-15, > 100 µM; in the experiment on OVCAR-8, > 100 µM (inactive). The GI50 with DU-145 and in the experiment on Hs-578T was > 100 µM (inactive) each time.

As to `COC(=O)/C=C\C(C#N)(C#N)/N=C/c1ccc(Br)s1`, the GI50 in the experiment with UACC-62 was 10.7 µM (inactive); in the experiment on NCI-H226 it was 3.18 µM (inactive); with HT-29, 2.35 µM (inactive); in the experiment with SN12C, 15.2 µM (inactive); in the experiment with MDA-N, 7.98 µM (inactive); in the experiment on NCI-H23, 9.2 µM (inactive). In addition, the GI50 with Malme-3M was 1.77 µM (inactive); with SK-MEL-28, 16.1 µM (inactive); in the experiment with MCF7, 2.47 µM (inactive); in the experiment on HCC 2998, 19.1 µM (inactive); in the experiment on CAKI-1, 2.45 µM (inactive); with HCT-116 it was 4.89 µM (inactive). In addition, the GI50 was 16 µM (inactive) in the experiment on U-251; 1.07 µM (active) with NCI-H522; 19.2 µM (inactive) in the experiment with SK-OV-3; 2.07 µM (inactive) in the experiment with SW-620; 2.18 µM in the experiment on HCT-15; 3.98 µM (inactive) in the experiment on OVCAR-8. In addition, the values for the GI50 with DU-145 and in the experiment on Hs-578T were 10.7 µM (inactive) and 25.3 µM (inactive), respectively.

In the case of `CCOC(=O)c1cc([N+](=O)[O-])c(Sc2ncnc3nc[nH]c23)c([N+](=O)[O-])c1`, the GI50 in the experiment with UACC-62 was 2.46 µM (inactive); in the experiment on NCI-H226, 5.61 µM (inactive); in the experiment with HT-29, 3.06 µM (inactive); in the experiment with SN12C, 14.1 µM (inactive); with MDA-N, 2.75 µM (inactive); in the experiment on NCI-H23, 7.13 µM (inactive). The GI50 in the experiment on Malme-3M is 3.15 µM (inactive); with SK-MEL-28 it was 14.3 µM (inactive); in the experiment with MCF7, 1.24 µM (inactive); in the experiment with HCC 2998, 17.8 µM (inactive); in the experiment with CAKI-1, 2.37 µM (inactive); with HCT-116, 1.87 µM (inactive). Besides, the GI50 was 6.82 µM (inactive) in the experiment on U-251; 0.643 µM (active) in the experiment with NCI-H522; 0.308 µM (active) in the experiment on SK-OV-3; 2.18 µM (inactive) in the experiment on SW-620; 2.48 µM with HCT-15; 4.74 µM (inactive) in the experiment with OVCAR-8. In addition, the GI50 was 10.2 µM (inactive) in the experiment with DU-145 and 9.64 µM (inactive) with Hs-578T.
